# Measured values published in patent US11478466B2, “Small molecule promoting osteoblast differentiation” (Cornell University, priority 2019, dated 2022).
# Assays:
# Assay type in all cases: cell-based, mouse
# [1] = test system: alkaline phosphatase (ALP); test: ALP expression staining in C2C12 cells; conditions: C2C12, 2 days, 10 μM
# Description: C2C12 cells were treated for 2 days with 10 μM DIPQUO or structural analogs, 1 ng/ml rhBMP4, or with inhibitors as noted in figure legends, and then fixed briefly in 70% acetone/10% formaldehyde/20% citrate. Staining was achieved using the leukocyte alkaline phosphatase kit (Sigma 86R-1KT) according to the manufacturer's instructions. Expression of ALP was confirmed and quantified by flow cytometric analysis, using an Accuri C6 flow cytometer. Briefly, control- or DIPQUO-treated C2C12 cells were detached and harvested on day 2 using PBS-based enzyme-free cell detachment solution (ThermoFisher). 2×10^5 cells were incubated on ice for 30 minutes with 10 μl APC-conjugated ALPL antibody (R&D Systems), and washed in ice-cold PBS before analysis. Live cells were gated and analyzed in CFlow Plus software and then data was converted to FlowJo to achieve publication-level resolution. For siRNA experiments, gene-specific oligonucleotides were obtained for mouse p38-alpha (Cell Signaling) and p38-beta (Santa Cruz). Signal Silence scramble siRNA control oligonucleotide was purchased from Cell Signaling. C2C12 cells at 70% confluency were transfected in 12-well plates using Lipofectamine RNAiMax reagent (Invitrogen) according to manufacturer's instructions. Transfected cells were treated 24 hours later with DMSO or 10 μM DIPQUO, and siRNA transfection was repeated after 48 hours without changing culture media. After an additional 3 days, cells were either fixed and stained for ALP expression or analyzed for ALP activity using the AttoPhos Substrate kit. Hemagglutinin and FLAG epitope-tagged MKK3 (pMT2-HA-MKK3) and MKK6 (pcDNA3-FLAG-MKK6) constructs were obtained from Addgene and transfected into C2C12 cells using Lipofectamine LTX with Plus Reagent (ThermoFisher) according to manufacturer's instructions and cell extracts analyzed for protein expression and activity as described below.
# [2] = test system: RAW 264.7 murine macrophage cell line; test: Osteoclast differentiation (TRAP staining, qRT-PCR) in RAW 264.7 cells
# Description: To address the specificity of DIPQUO for stimulating an osteogenic versus osteoclastic program, the RAW 264.7 murine macrophage cell line was assayed for osteoclast differentiation by staining for tartrate-resistant acid phosphatase (TRAP) to distinguish multinucleated osteoclasts from macrophages. […] Thus, DIPQUO appears to be primarily supportive of osteogenesis.
# The RAW 264.7 macrophage cell line was purchased from ATCC and maintained in DMEM with 10% FBS. Cells were treated with 10 μM DIPQUO or 50 ng/ml RANKL (Sigma) for 4 days. Cells were fixed in 70% acetone/10% formaldehyde/20% citrate and TRAP staining was achieved using the Leukocyte Acid Phosphatase kit (Sigma 387A-1KT).
# For quantitative RT-PCR analysis of gene expression in C2C12 cultures, cells were treated for 2 days with 10 μM DIPQUO and harvested into Trizol reagent (Invitrogen). One microgram of RNA was reverse transcribed using the VILO-RT kit (Invitrogen) to generate cDNA, which was diluted 1:25 in RNase-free H2O for qPCR with Sybr green using the Roche 480 II LightCycler and the 2^−ΔΔCT method (Livak and Schmittgen, 2001). For analysis of osteoclast gene expression, RAW 264.7 cells were treated with DMSO, 50 ng/ml RANKL, or 10 μM DIPQUO for 4 days, then harvested into Trizol reagent and processed as above. Mouse qPCR primers are as follows. Runx2: F([…]) (SEQ ID NO:1); R([…]) (SEQ ID NO:2); Dlx5: F([…]) (SEQ ID NO:3); R([…]) (SEQ ID NO:4); Osterix: F([…]) (SEQ ID NO:5); R([…]) (SEQ ID NO:6); ALP: F([…]) (SEQ ID NO:7); R([…]) (SEQ ID NO:8); Osteocalcin: F([…]) (SEQ ID NO:9); R([…]) (SEQ ID NO:10); Osteoactivin: F([…]) (SEQ ID NO:11); R([…]) (SEQ ID NO:12); CTSK: F([…]) (SEQ ID NO:13); R([…]) (SEQ ID NO:14); MMP9: F([…]) (SEQ ID NO:15); R([…]) (SEQ ID NO:16); Gapdh F([…]) (SEQ ID NO:17); R([…]) (SEQ ID NO:18). RNA-seq studies were carried out with the assistance of the Weill Cornell Genomics Core Facility, using the Illumina HiSeq4000 next-generation sequencer to generate reads from cDNA libraries generated from three biological replicates of day 2 DMSO- or DIPQUO-treated C2C12 cells. […]
# JNK p54 = test: Western blotting of JNK in C2C12 cells
# Description: Whole cell extracts were collected from C2C12 or BRITER cells in complete lysis buffer (20 mM Tris, 150 mM NaCl, 50 mM NaF, 1% NP40 substitute, HALT protease inhibitor cocktail (ThermoScientific). Proteins were resolved by electrophoresis on pre-cast 10% NuPage Bis-Tris gels (Invitrogen) and transferred to PVDF membranes (Bio-Rad). Membranes were blocked in 5% BSA-TBS-0.5% Tween-20 for 15 minutes, then incubated at 4° overnight with primary antibodies. Antibodies used were: rabbit anti-phospho-p38 MAPK (cat. no. 9211), anti-p38 MAPK XP (8690), anti-phospho-SMAD1/5 (9516), anti-SMAD1 XP (6944), anti-phospho-SMAD2/3 (8828), anti-SMAD2/3 XP (8685), anti-phospho-JNK (4668), anti-SAPK/JNK (9252), anti-phospho-Akt XP (4060), pan anti-Akt (4691), anti-phospho ERK p42/p44 (4377), anti-ERK p42/p44 (9102), anti-phospho-MKK3/6 (12280), anti-MKK3 (8535), anti-phospho-TAK1 (4531), anti-TAK1 (5206), anti-HA (3274), and anti-FLAG (14793); all from Cell Signaling); and mouse anti-p38α (cat. no. 33-1300), anti-p38β (33-8700; both ThermoFisher) and anti-β-actin (Sigma A1978). Proteins were visualized with HRP-conjugated secondary antibodies (Bio-Rad) with WestPico (ThermoFisher) or Immobilon (Millipore) chemiluminescence reagents. Images were obtained and analyzed for relative densitometric relationships on a LI-COR C-DiGit scanner using Image Studio software.
compound,measurement,setting,value
"Cc1cc(C)c2[nH]c(=O)c(-c3[nH]cnc3-c3ccccc3)cc2c1 [RU-0226606, 6,8-dimethyl-3-(4-phenyl-1H-imidazol-5-yl)quinolin-2(1H)-one]",ALP expression by staining,[1],rapidly stimulate ALP expression within 2 days
same,expression of CTSK and MMP9 (qRT-PCR),"[2]; RAW 264.7, 10 μM, 4 days","upregulated, albeit to a lower level compared with RANKL induction"
same,TRAP staining of multinucleated osteoclasts,"[2]; RAW 264.7, 4 days, DIPQUO 10 μM, RANKL 50 ng/ml",comparatively few TRAP-positive cells
same,JNK p54 signaling,JNK p54,suppressed the p54 isoform
